Test results: patent publication US6380235B1, “Benzimidazolones and analogues” (American Home Products Corporation, priority 1999, dated 2002)
“And” between values parts separate entries of the source, which are not always exact repeats. Equal entries are not always repeated. Blank lines part the entries; values can stand above or below the molecule they belong to.

Columns and labels:
[1] = tested on: rat uterine decidualization; assay: Rat decidualization assay; type: in vivo; details: ovariectomized female Sprague-Dawley rats; for Estimated average EC50 for dose-response curves (decidual response): s.c.
Protocol: 2. Rat Decidualization Assay
b. Animals (RACUC Protocol #5002)
The animals are treated once daily for seven days.
Uteri are removed and trimmed of fat.
Body weight: Mean total animal body weight (default-kg)
Decidual response: [(D-C)/C]×100%

human PR = molecular target: T1, human PR (Homo sapiens, UniProt P06401); assay: PRE-luciferase assay in CV-1 cells (hPR CV-1); type: cell-based
T1 construct: expressed in transfected cells; host or cells: CV-1 cells, electroporated with pLEM-hPR-B and pGL3-2xPRE-luciferase
T1 sequence (P06401 1-933): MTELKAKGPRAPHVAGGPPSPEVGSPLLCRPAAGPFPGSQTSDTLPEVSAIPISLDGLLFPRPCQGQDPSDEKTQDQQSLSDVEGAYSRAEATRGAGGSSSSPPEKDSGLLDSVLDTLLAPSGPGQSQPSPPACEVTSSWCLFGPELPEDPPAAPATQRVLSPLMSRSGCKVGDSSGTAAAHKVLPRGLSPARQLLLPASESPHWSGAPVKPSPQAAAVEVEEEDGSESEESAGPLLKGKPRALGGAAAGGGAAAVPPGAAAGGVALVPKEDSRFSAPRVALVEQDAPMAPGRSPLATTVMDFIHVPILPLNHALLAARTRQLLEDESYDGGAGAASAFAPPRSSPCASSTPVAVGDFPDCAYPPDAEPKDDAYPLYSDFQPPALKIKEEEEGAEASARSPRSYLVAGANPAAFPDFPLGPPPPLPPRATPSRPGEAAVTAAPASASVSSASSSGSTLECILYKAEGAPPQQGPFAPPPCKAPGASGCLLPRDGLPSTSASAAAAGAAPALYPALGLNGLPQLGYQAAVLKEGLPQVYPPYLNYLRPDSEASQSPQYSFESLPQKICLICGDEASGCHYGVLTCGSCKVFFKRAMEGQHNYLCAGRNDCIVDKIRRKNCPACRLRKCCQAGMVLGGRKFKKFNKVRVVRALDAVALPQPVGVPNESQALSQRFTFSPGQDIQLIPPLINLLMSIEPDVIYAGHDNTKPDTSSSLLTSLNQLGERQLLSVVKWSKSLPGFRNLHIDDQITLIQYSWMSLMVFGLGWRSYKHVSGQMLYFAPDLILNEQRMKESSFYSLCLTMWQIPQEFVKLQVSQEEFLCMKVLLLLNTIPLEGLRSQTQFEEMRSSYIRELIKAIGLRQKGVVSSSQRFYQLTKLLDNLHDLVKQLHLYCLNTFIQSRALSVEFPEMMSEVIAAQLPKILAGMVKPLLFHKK
Protocol: 3. PRE-luciferase Assay in CV-1 Cells
The object of this assay is to determine a compound's progestational or antiprogestational potency based on its effect on PRE-luciferase reporter activity in CV-1 cells co-transfected with human PR and PRE-luciferase plasmids. The materials methods used in the assay are as follows.
DMEM (BioWhittaker) containing 10% (v/v) fetal bovine serum (heat inactivated), 0.1 mM MEM non-essential amino acids, 100 U/ml penicillin, […] streptomycin, and 2 mM GlutaMax (GIBCO, BRL). Experimental medium: DMEM (BioWhittaker), phenol red-free, containing 10% (v/v) charcoal-stripped fetal bovine serum (heat-inactivated), 0.1 mM MEM non-essential amino acids, 100 U/ml penicillin, […] streptomycin, and 2 mM GlutaMax (GIBCO, BRL).
b. Cell Culture Transfection Treatment, and Luciferase Assay
Stock CV-1 cells are maintained in growth medium. Co-transfection is done using 1.2×10^7 cells, […] pLEM plasmid with hPR-B inserted at Sphl and BamHl sites, 10 mg pGL3 plasmid with two PREs upstream of the luciferase sequence, and 50 mg sonicated calf thymus DNA as carrier DNA in […]. Electroporation is carried out at 260 V and […] in a Biorad Gene Pulser II. After electroporation, cells are resuspended in growth medium and plated in 96-well plate at 40,000 cells/well in 200 μl. Following overnight incubation, the medium is changed to experimental medium. […] Twenty-four hr. after treatment, the medium is discarded, cells are washed three times with D-PBS (GIBCO, BRL). Fifty μl of cell lysis buffer (Promega, Madison, Wis.) is added to each well and the plates are shaken for 15 min in a Titer Plate Shaker (Lab Line Instrument, Inc.). Luciferase activity is measured using luciferase reagents from Promega.
Each treatment consists of at least 4 replicates. Log transformed data are used for analysis of variance and nonlinear dose response curve fitting for both agonist and antagonist modes. Huber weighting is used to downweight the effects of outliers. EC50 or IC50 values are calculated from the retransformed values.

[2] = tested on: alkaline phosphatase activity in T47D cells; assay: T47D cell alkaline phosphatase assay; type: cell-based; details: antagonist activity in the presence of 1 nM progesterone, 24 hr
Protocol: 4. T47D Cell Alkaline Phosphatase Assay
The purpose of this assay is to identify progestins or antiprogestins by determining a compound's effect on alkaline phosphatase activity in T47D cells.
DMEM:F12 (1:1) (GIBCO, BRL) supplemented with 5% (v/v) charcoal stripped fetal bovine serum (not heat-inactivated), 100 U/ml penicillin, 100 μg/ml streptomycin, and 2 mM GlutaMax (GIBCO, BRL). b. Alkaline Phosphatase Assay Buffer
I. 0.1 M Tris-HCl, pH 9.8, containing 0.2% Triton X-100
II. 0.1 M Tris-HCl, pH 9.8 containing 4 mM p-nitrophenyl phosphate (Sigma). c. Cell Culture and Treatment
Frozen T47D cells were thawed in a 37° C. water bath and diluted to 280,000 cells/ml in culture medium. To each well in a 96-well plate (Falcon, Becton Dickinson Labware), 180 μl of diluted cell suspension was added. Twenty μl of reference or test compounds diluted in the culture medium was then added to each well. […] The cells were incubated at 37° C. in a 5% CO2/humidified atmosphere for 24 hr. […]
d. Alkaline Phosphatase Enzyme Assay
At the end of treatment, the medium was removed from the plate and fifty μl of assay buffer I was added to each well. The plates were shaken in a titer plate shaker for 15 min. […]
For reference and test compounds, a dose response curve is generated for dose (X-axis) vs. the rate of enzyme reaction (slope) (Y-axis). […] EC50 or IC50 values are calculated from the retransformed values.

T47D cells = assay: T47D cell proliferation assay (BrdU incorporation); type: cell-based
Protocol: 1. T47D Cell Proliferation Assay
The objective of this assay is the determination of progestational and antiprogestational potency by using a cell proliferation assay in T47D cells. A compound's effect on DNA synthesis in T47D cells is measured.
DMEM:F12 (1:1) (GIBCO, BRL) supplemented with 10% (v/v) fetal bovine serum (not heat-inactivated), 100 U/ml penicillin, […] streptomycin, and […] GlutaMax (GIBCO, BRL).
Minimum Essential Medium (MEM) (#51200-038GIBCO, BRL) phenol red-free supplemented with 0.5% charcoal stripped fetal bovine serum, 100 U/ml penicillin, […] streptomycin, and 2 mM GlutaMax (GIBCO, BRL). […]
At the end of BrdU labeling, the medium is removed and BrdU incorporation is measured using a cell proliferation ELISA kit (#RPN 250, Amersham Life Science) according to manufacturer's instructions. […] Then 25 μl of 1 M sulfuric acid is added to each well to stop color reaction and optical density is read in a plate reader at 450 nm within 5 min.
Square root-transformed data are used for analysis of variance and nonlinear dose response curve fitting for both agonist and antagonist modes. […] EC50 or IC50 values are calculated from the retransformed values.
Trimegestone and medroxyprogesterone acetate (MPA) are reference progestins and RU486 is the reference antiprogestin. All reference compounds are run in fill dose-response curves and the EC50 or IC50 values are calculated.

SMILES: C#C[C@]1(O)CC[C@H]2[C@@H]3CCC4=CC(=O)CC[C@@H]4[C@H]3C(=C)C[C@@]21CC [3-Ketodesogestrel]
Estimated EC50 for uterine weight (decidual response) ([1]; s.c. once daily for seven days, individual studies): 0.10 mg/kg, s.c. and 0.06 mg/kg, s.c. and 0.11 mg/kg, s.c.
Estimated average EC50 for dose-response curves (decidual response) [1]: 0.10 mg/kg, s.c.

SMILES: O=c1[nH]c2ccc(-c3cccc([N+](=O)[O-])c3)cc2n1Cc1ccccc1 [Compound 2, 1-Benzyl-6-(3-nitro-phenyl)-1,3-dihydro-benzoimidazol-2-one]
IC50 (human PR): 230 nM

SMILES: Cn1c(=O)[nH]c2cc(-c3cccc([N+](=O)[O-])c3)ccc21 [Compound 5]
IC50 (human PR): 750 nM

SMILES: CC(C)n1c(=O)[nH]c2ccc(-c3cccc([N+](=O)[O-])c3)cc21 [Compound 6]
IC50 (human PR): 147 nM

SMILES: CC(C)n1c(=O)[nH]c2ccc(-c3cccc(Cl)c3)cc21 [Compound 7]
IC50 (human PR): 155 nM

SMILES: CC(C)OC(=O)N1CC(=O)Nc2ccc(-c3cccc(Cl)c3)cc21 [Example 29, Isopropyl 7-(3-chlorophenyl)-3-oxo-3,4-dihydroquinoxalin-1(2H)-carboxylate]
melting point: 174 to 176 °C

SMILES: C#C[C@]1(O)CC[C@H]2[C@@H]3CCC4=CC(=O)CC[C@@H]4[C@H]3CC[C@@]21CC [Levonorgestrel]
Estimated average EC50 for dose-response curves (decidual response) [1]: 0.10 mg/kg, s.c.

SMILES: C[C@H](O)C(=O)[C@@]1(C)CC[C@H]2[C@@H]3CCC4=CC(=O)CCC4=C3CC[C@@]21C [Trimegestone]
EC50 (T47D cells; individual studies, read-out: Estimated EC50 (half-maximal increase in BrdU incorporation)): 0.017 nM and 0.014 nM and 0.019 nM

The next lines start with the values.

IC50 (human PR): 220 nM
SMILES: O=C1CSc2cc(-c3cccc([N+](=O)[O-])c3)ccc2N1 [Compound B1, 7-(3-Nitro-phenyl)-4H-benzo[1,4]thiazin-3-one]

IC50 (human PR): 295 nM
SMILES: CCC1Sc2cc(-c3cccc([N+](=O)[O-])c3)ccc2NC1=O (stereo not shown) [Compound B2]

IC50 [2]: 600 nM
SMILES: CN1CC(=O)Nc2ccc(-c3cccc(Cl)c3)cc21 [Compound C1, 6-(3-Chloro-phenyl)-4-methyl-3,4-dihydro-1H-quinoxalin-4-one]

IC50 (human PR): 525 nM
SMILES: O=C1CNc2cc(-c3cccc(Cl)c3)ccc2N1 [Compound C2]

IC50 [2]: 300 nM
SMILES: CN1CC(=O)Nc2ccc(-c3cc(C#N)cs3)cc21 [Compound C3, 5-(3,4-Dihydro-4-methyl-2-oxo-quinaxalin-6-yl)thiophene-3-carbonitrile]

melting point: 110 to 115 °C
SMILES: CCCCN1CC(=O)Nc2ccc(-c3cccc(Cl)c3)cc21 [Compound C6, 4-(n-Butyl)-6-(3-chloro-phenyl)-3,4-dihydro-1H quinoxalin-2-one]

IC50 (T47D cells; read-out: Estimated IC50 (half-maximal decrease in trimegestone induced BrdU incorporation), in presence of 0.03 nM trimegestone (b226 prints 0.1), individual studies): 0.016 nM and 0.018 nM
SMILES: CC#C[C@]1(O)CC[C@H]2[C@@H]3CCC4=CC(=O)CCC4=C3[C@@H](c3ccc(N(C)C)cc3)C[C@@]21C [RU486]
